# Measured values as given in ChEMBL document CHEMBL6153133, “Discovery of Diphenyl Ether Derivatives as Novel BKCa Channel Activators: Structure-Activity Relationship, Cryo-EM Complex Structures, and In Vivo Animal Studies” (J Med Chem, 2025).
# Experiments:
# [1] = Half-life in male Sprague-Dawley rat at 10 mg/kg, iv by LC-MS/MS analysis; type: ADME, organism-based; settings: in vivo
# [2] = AUClast in male Sprague-Dawley rat at 10 mg/kg, iv by LC-MS/MS analysis; type: ADME, organism-based; settings: in vivo
# [3] = Clearance in male Sprague-Dawley rat at 10 mg/kg, iv by LC-MS/MS analysis; type: ADME, organism-based; settings: in vivo
# [4] = Volume of distribution at steady state in male Sprague-Dawley rat at 10 mg/kg, iv by LC-MS/MS analysis; type: ADME, organism-based; settings: in vivo, read-out: Vdss
# [5] = Cmax in male Sprague-Dawley rat at 10 mg/kg, po by LC-MS/MS analysis; type: ADME, organism-based; settings: in vivo
# [6] = Tmax in male Sprague-Dawley rat at 10 mg/kg, po by LC-MS/MS analysis; type: ADME, organism-based; settings: in vivo
# [7] = Half-life in male Sprague-Dawley rat at 10 mg/kg, po by LC-MS/MS analysis; type: ADME, organism-based; settings: in vivo
# [8] = AUClast in male Sprague-Dawley rat at 10 mg/kg, po by LC-MS/MS analysis; type: ADME, organism-based; settings: in vivo
# [9] = Oral bioavailability in male Sprague-Dawley rat at 10 mg/kg by LC-MS/MS analysis; type: ADME, organism-based; settings: in vivo
# [10] = tested on: Rattus norvegicus; assay: Reversal of urinary incontinence in male spontaneous hypertensive rat model assessed as decrease in urine frequency at 0.1 mg/kg, ip measured after 3 hrs relative to control; type: functional; parameters: scale not given: the % may be the effect or the level left
# [11] = tested on: Rattus norvegicus; assay: Reversal of urinary incontinence in male spontaneous hypertensive rat model assessed as decrease in urine frequency at 0.3 mg/kg, ip measured after 3 hrs relative to control; type: functional; parameters: scale not given: the % may be the effect or the level left
# [12] = tested on: Rattus norvegicus; assay: Reversal of urinary incontinence in male spontaneous hypertensive rat model assessed as decrease in total urine volume at 1 mg/kg, ip measured after 3 hrs relative to control; type: functional; parameters: scale not given: the % may be the effect or the level left
# [13] = target: T1, Calcium-activated potassium channel subunit alpha-1 (Homo sapiens, UniProt Q12791); assay: Activation of BKca channel (unknown origin) by patch-clamp method
# T1 sequence (Q12791 whole entry): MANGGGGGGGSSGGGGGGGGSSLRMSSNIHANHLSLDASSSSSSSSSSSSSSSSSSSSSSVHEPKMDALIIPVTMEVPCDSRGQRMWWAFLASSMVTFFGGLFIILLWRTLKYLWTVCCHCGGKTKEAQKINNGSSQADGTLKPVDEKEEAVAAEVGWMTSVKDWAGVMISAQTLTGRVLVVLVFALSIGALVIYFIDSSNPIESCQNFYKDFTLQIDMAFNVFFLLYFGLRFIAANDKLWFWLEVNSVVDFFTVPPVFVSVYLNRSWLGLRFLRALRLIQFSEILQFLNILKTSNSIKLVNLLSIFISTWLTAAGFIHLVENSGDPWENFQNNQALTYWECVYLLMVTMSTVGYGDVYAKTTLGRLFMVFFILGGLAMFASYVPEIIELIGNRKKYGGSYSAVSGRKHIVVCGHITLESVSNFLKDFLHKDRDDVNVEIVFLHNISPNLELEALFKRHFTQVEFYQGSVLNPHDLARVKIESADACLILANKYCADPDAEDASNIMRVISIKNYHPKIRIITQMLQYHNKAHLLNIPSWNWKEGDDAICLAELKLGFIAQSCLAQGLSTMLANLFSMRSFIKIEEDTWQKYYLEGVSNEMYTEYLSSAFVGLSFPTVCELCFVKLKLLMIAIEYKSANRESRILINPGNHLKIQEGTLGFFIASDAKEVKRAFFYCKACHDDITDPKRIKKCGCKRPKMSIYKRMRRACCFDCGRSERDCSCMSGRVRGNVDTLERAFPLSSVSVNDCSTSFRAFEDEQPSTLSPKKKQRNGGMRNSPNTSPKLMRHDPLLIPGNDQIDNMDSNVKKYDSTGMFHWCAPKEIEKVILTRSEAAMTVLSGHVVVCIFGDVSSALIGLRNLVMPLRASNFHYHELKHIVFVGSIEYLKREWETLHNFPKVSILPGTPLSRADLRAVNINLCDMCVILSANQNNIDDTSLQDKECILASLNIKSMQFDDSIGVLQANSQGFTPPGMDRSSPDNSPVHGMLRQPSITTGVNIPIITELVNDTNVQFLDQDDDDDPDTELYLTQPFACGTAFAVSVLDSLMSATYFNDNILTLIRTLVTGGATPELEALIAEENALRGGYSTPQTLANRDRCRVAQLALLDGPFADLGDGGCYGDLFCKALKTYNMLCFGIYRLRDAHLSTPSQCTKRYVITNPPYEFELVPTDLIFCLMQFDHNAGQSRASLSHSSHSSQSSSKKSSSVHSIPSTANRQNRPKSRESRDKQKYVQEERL
# [14] = tested on: Calcium-activated potassium channel subunit alpha-1 (Homo sapiens), Q12791 [UNDEFINED MUTATION]; assay: (§1) Activation of hyperactive human BKca channel G803D/N806K mutant transfected in human AD-293 cells assessed as maximum relative fluorescence value at 5 uM preincubated for 15 mins followed by Tl+ stimulus buffer addition and measured after 80 sec by Flexstation3 multimode microplate reader analysis relative to control; type: cell-based; settings: time 980.0 sec
# Calcium-activated potassium channel subunit alpha-1 (Homo sapiens), Q12791 [UNDEFINED MUTATION], sequence (Q12791 whole entry, looked up, stated change not applied): as the sequence (Q12791 whole entry) above
# [15] = target: T1, Calcium-activated potassium channel subunit alpha-1; assay: Activation of BKca channel (unknown origin) by cell-based fluorescence assay
# [16] = tested on: Calcium-activated potassium channel subunit alpha-1 (Homo sapiens), Q12791 [UNDEFINED MUTATION]; assay: as §1, with “assessed as fold change in maximum relative” for “assessed as maximum relative”, “reader analysis” for “reader analysis relative to control”; type: cell-based; settings: filed as opener, time 980.0 sec
# [17] = target: T1, Calcium-activated potassium channel subunit alpha-1; assay: Activation of BKca channel (unknown origin) by cell based method
# [18] = target: T1, Calcium-activated potassium channel subunit alpha-1; assay: Activation of human KCa1.1 by patch clamp method
# [19] = target: Calcium-activated potassium channel subunit alpha-1 (Homo sapiens, UniProt Q12791, G803D/N806K); assay: Activation of hyperactive human BKca channel G803D/N806K mutant transfected in human AD-293 cells incubated for 20 to 30 mins by Flexstation3 multimode microplate reader analysis; type: cell-based
# Calcium-activated potassium channel subunit alpha-1 (Homo sapiens, UniProt Q12791, G803D/N806K), sequence (Q12791 whole entry, looked up, stated change not applied): as the sequence (Q12791 whole entry) above
structure (smiles),measurement,setting,value
Cl.Nc1ccc(Oc2c(F)c(F)c(C(F)(F)F)c(F)c2F)c(O)c1,half-life,[1],4.5 h
same,AUC(0-t),[2],1450 ng·h/mL
same,clearance,[3],115 mL/min/kg
same,Vd,[4],13.2 L/kg
same,Cmax,[5],61.5 ng/mL
same,Tmax,[6],4.2 h
same,half-life,[7],3.9 h
same,AUC(0-t),[8],344 ng·h/mL
same,bioavailability,[9],23.5%
same,Activity,[10],43%
same,Activity,[11],65%
same,Activity,[12],48.5%
O=c1[nH]c2cc(C(F)(F)F)ccc2n1-c1cc(C(F)(F)F)ccc1O,EC50,[13],10 µM
FC(F)(F)c1cc(NC(=S)Nc2ccc(Br)cc2-c2nnn[nH]2)cc(C(F)(F)F)c1,Activity,[14],14.4%
same,EC50,[15],7 µM
same,fold change (FC),[16],2.3
same,EC50,[17],7 µM
same,EC50,[18],0.4 µM
Oc1ccc(-c2onc(C(F)(F)F)c2-c2ccc(Cl)cc2)c(O)c1,EC50,[19],3.9 µM
